Consider 3 substances from patent US20250129184A1, “TARGETED ANTICOAGULANT” (Northwestern University, priority 2016, published 2025).

Where no end group is shown, it is not given here.

For one assay, the system named is fibrin. The experiment in a line: peptide binding to protein-coated polystyrene surfaces (fibrin). The following applies: biotinylated peptide vs scrambled CERAK; protein 10 μg/cm^2; overnight; fluorophore-conjugated streptavidin. The procedure: (§1) During the development of embodiments of the technology provided herein, experiments were conducted to assess the binding specificity of the CREKA peptides towards fibrin and non-target components. […] Proteins were applied to uncoated polystyrene surfaces at 10 μg/cm^2 and washed with PBS three times to remove unbound protein. A range of concentrations of biotinylated CREKA and biotinylated CERAK were incubated with the treated surfaces overnight, then washed three times the next day to remove the unbound peptides. The peptides remaining on the protein-coated surfaces were quantified using fluorophore-conjugated streptavidin. […] These properties of the heparin-CREKA compounds indicate that heparin-CREKA is appropriate for administration by intravenous injection.

The next assay has as its target albumin (Homo sapiens, UniProt P02768). The experiment in a line: peptide binding to protein-coated polystyrene surfaces (albumin). Particulars: biotinylated peptide; common blood plasma protein. The procedure:
as §1

A further assay has as its target T1, fibrinogen (Homo sapiens, UniProt P02671+P02675+P02679).
T1 sequence (P02671 20-629 limits assumed): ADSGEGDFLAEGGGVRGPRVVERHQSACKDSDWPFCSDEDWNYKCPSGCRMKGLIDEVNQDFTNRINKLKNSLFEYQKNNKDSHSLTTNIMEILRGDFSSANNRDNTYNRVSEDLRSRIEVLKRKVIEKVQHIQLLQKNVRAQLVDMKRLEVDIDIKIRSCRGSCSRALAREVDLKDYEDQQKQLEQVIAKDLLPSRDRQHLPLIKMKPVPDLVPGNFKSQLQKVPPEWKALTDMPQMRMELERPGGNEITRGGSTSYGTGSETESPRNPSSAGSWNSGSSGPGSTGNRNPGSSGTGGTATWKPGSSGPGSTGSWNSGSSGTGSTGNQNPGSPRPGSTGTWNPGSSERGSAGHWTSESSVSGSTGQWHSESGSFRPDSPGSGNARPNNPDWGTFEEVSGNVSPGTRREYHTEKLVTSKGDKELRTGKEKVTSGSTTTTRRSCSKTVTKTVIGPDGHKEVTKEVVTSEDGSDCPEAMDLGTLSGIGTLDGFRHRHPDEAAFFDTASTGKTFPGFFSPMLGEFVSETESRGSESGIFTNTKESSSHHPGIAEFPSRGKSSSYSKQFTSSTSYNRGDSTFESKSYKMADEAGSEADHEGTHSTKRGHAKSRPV
T1 sequence (P02675 31-491): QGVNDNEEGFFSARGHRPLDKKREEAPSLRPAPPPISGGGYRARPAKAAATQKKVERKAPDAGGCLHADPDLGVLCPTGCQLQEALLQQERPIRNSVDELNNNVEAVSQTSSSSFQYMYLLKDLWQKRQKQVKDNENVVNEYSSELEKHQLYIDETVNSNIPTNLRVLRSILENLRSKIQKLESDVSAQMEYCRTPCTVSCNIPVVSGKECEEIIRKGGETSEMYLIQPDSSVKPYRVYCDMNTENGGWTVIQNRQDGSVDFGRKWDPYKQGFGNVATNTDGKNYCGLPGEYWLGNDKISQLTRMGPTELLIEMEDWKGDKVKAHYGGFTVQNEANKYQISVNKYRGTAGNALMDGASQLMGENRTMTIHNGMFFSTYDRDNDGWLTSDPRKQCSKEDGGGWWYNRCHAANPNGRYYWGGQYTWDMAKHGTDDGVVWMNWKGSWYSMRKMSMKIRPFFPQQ
T1 sequence (P02679 27-433 limits assumed): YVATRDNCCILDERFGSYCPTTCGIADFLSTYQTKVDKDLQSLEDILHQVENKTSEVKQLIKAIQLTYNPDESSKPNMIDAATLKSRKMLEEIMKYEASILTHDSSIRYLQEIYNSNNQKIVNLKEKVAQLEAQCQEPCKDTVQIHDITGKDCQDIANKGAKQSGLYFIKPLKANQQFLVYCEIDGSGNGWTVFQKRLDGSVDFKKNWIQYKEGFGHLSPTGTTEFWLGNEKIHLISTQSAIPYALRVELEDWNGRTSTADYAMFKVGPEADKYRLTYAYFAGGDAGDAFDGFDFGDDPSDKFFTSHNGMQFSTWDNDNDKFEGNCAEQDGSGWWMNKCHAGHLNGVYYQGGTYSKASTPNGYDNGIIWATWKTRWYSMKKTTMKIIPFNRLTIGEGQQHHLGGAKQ
The assay is described as follows: peptide binding to protein-coated polystyrene surfaces (fibrinogen). The following applies: biotinylated peptide; common blood plasma protein. As to the method: as §1

Assay [1] deals with ePTFE graft in abdominal aorta. The assay is described as follows: rat abdominal aorta interposition model with ePTFE graft. The format is in vivo, Sprague Dawley rats. The following applies: two intravenous doses, 24 hours; middle_3 and distal segments. As to the method:
During the development of embodiments of the technology provided herein, experiments were conducted to evaluate the in vivo performance of the heparin-CREKA relative to conventional clinically used heparin. In particular, heparin-CREKA was studied in a rat abdominal aorta interposition model. Briefly, male Sprague Dawley rats (200-500 g) were anesthetized by a ketamine/xylazine cocktail. The abdomen of the anesthetized rat was entered through a midline incision. The abdominal aorta was exposed (FIG. 7, Panel A), clamped in both proximal and distal regions using micro-vessel clips, and then excised between the clamps (FIG. 7, Panel B). A segment (e.g., approximately 1 cm in length; 1.524±0.05 mm in diameter) of expanded polytetrafluoroethylene (ePTFE) was used as a graft. The graft was connected to the abdominal aorta using an end-to-end anastomosis technique with interrupted stitches at each end (FIG. 7, Panel C). Following reperfusion of blood flow through the graft, one dose of anti-coagulant (heparin or heparin-CREKA) was given systemically via intravenous injection. The incision was then closed in layers. 24 hours after the initial implantation surgeries and immediately prior to sacrifice of the test […], a second dose of […] (heparin or heparin-CREKA) was administered systemically via intravenous injection. […]

The next assay concerns Pig whole blood. The assay is described as follows: whole blood clotting assay on fibrin coated plates. The format is cell-based. Particulars: fibrin coated 96-well plates pre-treated 30 minutes, washed three times with PBS; re-calcified blood; absorbance 405 nm. The procedure:
During the development of embodiments of the technology provided herein, experiments were conducted to test the anti-coagulant activity of embodiments of the heparin-CREKA compounds described herein. In particular, the heparin-CREKA compounds were evaluated by a whole blood clotting assay and a platelet adhesion assay (FIGS. 4 and 5). Pig whole blood was collected into acid citrate dextrose (ACD) anticoagulant. Fibrin coated 96-well plates were pre-treated with phosphate-buffered saline (PBS), heparin, or heparin-CREKA for 30 minutes at room temperature, then followed with three washes with PBS prior to the test. The wash removes unbound heparin or heparin-CREKA from the surfaces. Control experiments included tests of tissue culture treated and untreated polystyrene 96 well plates. […] The coagulation process was monitored at each selected time point by adding 150 μl of deionized water into each well to lyse the unclotted red blood cells. The lysate was then transferred into a new plate and the absorbance was measured at a wavelength of 405 nm. Higher absorbance represents more unclotted red blood cells and better anti-coagulation effect. The anti-coagulant effect of heparin-CREKA was detected up to 60 minutes while the effect of the conventional heparin was undetectable 20 minutes after contacting the blood (FIG. 4).

The subject of the next assay is platelets. The experiment in a line: platelet adhesion assay using platelet-rich plasma on fibrin surfaces. The format is cell-based. Particulars: compared to bare fibrin surface; at a lower concentration than heparin; PRP 1:10, 37° C., 60 minutes; LDH readout. As to the method: Next, during the development of embodiments of the technology provided herein, experiments were conducted to test the anticoagulation activity of embodiments of the heparin-CREKA compounds described herein. In particular, a platelet adhesion assay was performed using platelet-rich plasma (PRP). Surfaces were treated with various concentrations of heparin or heparin-CREKA as described above. PRP, diluted 1:10 in PBS, was incubated at 37° C. for 60 minutes with the samples and gently rinsed with warm PBS. The number of adherent platelets was determined by detecting the amount of lactate dehydrogenase (LDH) present after cell lysis. Briefly, adherent platelets were lysed by incubation with 2% Triton-PSB buffer for 30 minutes at 37° C. A colorimetric substrate for LDH was added and incubated for 20 minutes at 37° C. The optical density was measured at a wavelength of 490 nm. A calibration curve was generated from a series of serial dilutions of a known platelet concentration and used to determine the number of adhered platelets.

The next assay has as its system graft site. The assay is described as follows: in vivo dosing studies, anti-coagulant effect at the graft site by imaging. As to the method: During the development of embodiments of the technology provided herein, experiments were conducted to study the in vivo binding and pharmacology response of the embodiments of heparin-CREKA. In particular, data were collected from three animal studies in which the dosing period was varied. Study 1—animals were scarified 24 hours after the initial surgery and 2 doses of heparin-CREKA or control heparin-CERAK were administrated by intravenous injection during the 24 hour period. The first dose was administered immediately after the surgery (e.g., after re-establishing blood flow at the graft area). The second dose was administered 6 hours prior to euthanizing the animal. Imaging data were collected and analyzed to evaluate the anti-coagulant effect of heparin-CREKA at the graft site. […] Study 2—animals were kept alive for 7 days after surgery and one dose of heparin-CREKA or control heparin-CERAK was administrated by intravenous injection immediately after the surgery (e.g., after re-establishing blood flow at the graft area). In contrast to Study 1, no additional dose was given after the first dose. Imaging data were collected and analyzed to evaluate the anti-coagulant effect of heparin-CREKA at the graft site. […] Study 3—animals were kept alive for 7 days after surgery and two doses of heparin-CREKA or control heparin-CERAK were administrated by intravenous injection during the 7 day period. The first dose was administered immediately after the surgery (e.g., after re-establishing blood flow at the graft area). The second dose was administered 6 hours before euthanizing the animal. Imaging data were collected and analyzed to evaluate the anti-coagulant effect of heparin-CREKA at the graft site.

Regarding “Cys-Arg-Glu-Lys-Ala (CREKA; also: biotinylated, site not given here) [tested in biotinylated form]”, the CREKA-fibrin binding entry in the assay on fibrin is given as “highly specific”. The binding to albumin result in the assay with albumin is reported as “very weakly”. In addition, in the assay with fibrinogen, the binding to fibrinogen entry is “very weakly”.

Consider “heparin-CREKA: heparin covalently linked through a BMPH linker to the fibrin binding peptide Cys-Arg-Glu-Lys-Ala (CREKA) (also: heparin linked via BMPH linker, site not given here)”, for which, in assay [1], the “clotting in the grafts (histology)” value was “remained clean”. Also, the “time for which the anti-coagulant effect was detected after contacting the blood” value in the assay with Pig whole blood is “up to 60 minutes”. In addition, the “amount of adhered platelets” value in the assay with platelets is listed as “significantly reduced”. In addition, the “anti-coagulant effect at the graft site relative to heparin-CERAK” value is listed as “significant improvement” in the assay with graft site (Study 1: 24 hours, 2 intravenous doses (after surgery and 6 hours prior to euthanizing)); “only a very small difference” in the assay on graft site (Study 2: 7 days, one intravenous dose immediately after surgery); “significant improvement” in the assay on graft site (Study 3: 7 days, two intravenous doses (after surgery and 6 hours before euthanizing)).

Turning to heparin [reference compound], in assay [1], the “clotting in the grafts (histology)” value is reported as “major clotting”. For the same substance, the “time for which the anti-coagulant effect was detected after contacting the blood” value with Pig whole blood was less than 20 min.
